From patent US4110626A, “Method for improving the quality of the fragrance of perfumes using aliphatic dibasic acid diesters” (Shiseido Co., Ltd., priority 1976, dated 1978)

Experiments:
skin of an albino rabbit = experiment: Primary irritation of the skin of an albino rabbit; assay type: in vivo; settings: 0.3 ml, intact and abraded area, 24 hours
Description: The primary irritation of the skin of an albino rabbit was determined by adhering 0.3 ml of a test agent on a lint cloth patch, applying the cloth to an intact area and an abraded area of the skin of the back of the albino rabbit, and evaluating the skin reactions at these two areas after a lapse of 24 hours. Then, an overall evaluation was made.

skin of a guinea pig = experiment: Cumulative irritation on the skin of a guinea pig; assay type: in vivo; settings: 0.3 ml three times at 24 hour intervals, intact skin
Description: The cumulative irritation on the skin of a guinea pig was evaluated by coating 0.3 ml of a test agent on intact skin of the guinea pig and judging the skin reaction after a lapse of 24 hours, then coating the test agent in an amount of 0.3 ml on the same site twice, each at 24 hour intervals, and judging the reaction of the skin after a lapse of 72 hours (after coating three times).

[1] = Stabilizing effect on octanal (APHA color); assay type: physicochemical; settings: 37° C, 1 month; original APHA 15; 50% controlling agent added or octanal alone
Description: Octanal was selected as a single perfume, and the stabilizing effect of the perfume controlling agent was determined.
Amount of Perfume Controlling Agent: 50% based on the octanal (in the case of both DIBA and DIAA)
Test Temperature and Period: 37° C, one month (checked every week)
Items Evaluated: Acid value (AV), carbonyl value (COV), APHA color
In the test, a 100 ml brown bottle boiled in water for 12 hours was used, and the head space of the bottle was purged with nitrogen gas after the octanal had been introduced into the bottle.
Specifically, the color of a solution obtained by diluting 1 ml of a standard original color liquid (octanal) with water exactly to a volume of 100 ml is taken as APHA No. 5, and the APHA color number is increased by a multiple of 5 (as 10, 15, 20 . . . ) for every 1 ml increase of the original liquid.

[2] = Acute oral toxicity (LD50)
Pseudomonas aeruginosa = experiment: Microorganism assimilation; settings: for OD (turbidity): 660 nm
Description: 100 ml of the above liquid medium was placed in a 500 ml Sakaguchi flask, and sterilized at 120° C for 15 minutes in an autoclave in a customary manner. After cooling, the culture medium was inoculated with a prescribed amount of a suspension of the pre-cultured microorganism and cultivated at 30° C with shaking 120 times per minute.
Changes with time in the pH, turbidity, number of living cells were determined.
The turbidity was determined as follows: 2 ml of the culture broth was collected, and the precipitate was separated with a centrifugal separator. The precipitate was washed with acetone, and suspended in 2 ml of distilled water. The turbidity (OD) of the suspension at 660 nm was measured.

| SMILES | Primary irritation of the skin (skin of an albino rabbit) | Cumulative irritation on the skin (skin of a guinea pig) | APHA color of octanal [1] | LD50 ([2]; acute oral toxicity) [mL/kg] | Acute toxicity compared with conventional perfume controlling agents ([2]; conclusion from Table 1) | pH (Pseudomonas aeruginosa; 0 days elapsed) | Number of Living Cells (Pseudomonas aeruginosa; 2 days elapsed) | pH (Pseudomonas aeruginosa; 2 days elapsed) | OD (turbidity) (Pseudomonas aeruginosa; 2 days elapsed) | Number of Living Cells (Pseudomonas aeruginosa; 7 days elapsed) | pH (Pseudomonas aeruginosa; 7 days elapsed) | OD (turbidity) (Pseudomonas aeruginosa; 7 days elapsed) | Number of Living Cells (Pseudomonas aeruginosa; 14 days elapsed) | pH (Pseudomonas aeruginosa; 14 days elapsed) | OD (turbidity) (Pseudomonas aeruginosa; 14 days elapsed) | Assimilation by microorganism (Pseudomonas aeruginosa; conclusion from Table 8) |
| --- | --- | --- | --- | --- | --- | --- | --- | --- | --- | --- | --- | --- | --- | --- | --- | --- |
| CC(C)CCOC(=O)CCCCC(=O)OCCC(C)C (single isomer, unassigned) [DIAA, diisoamyl adipate] | did not exhibit irritating effects | did not exhibit irritating effects | about 30 APHA | > 25 | equal to, or lower than, other conventional perfume controlling agents | 6.90 | 1.6 × 10^6 | 4.74 | 0.105 | < 10^2 | 4.40 | 0.05 | < 10^2 | 4.30 | 0.055 | assimilated very well |
| CCCCCCCC=O [octanal] | – | – | > 300 APHA | – | – | – | – | – | – | – | – | – | – | – | – | – |
